For data set [1], the system named is Abutilon theophrasti. As to the kind of experiment: Pre-emergence herbicidal effect. In kind it is in vivo. The settings on record: Dosage 320 g/ha, scored visually after 3 weeks. Summed up: (§1)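 Herbicidal activity (%) is a visual rating made 3 weeks after treatment by comparison with untreated controls, where 0% equals control plants and 100% means the plants died. Application went onto the soil covering sown seeds before emergence.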

The subject of data set [2] is Amaranthus retroflexus. In words: Pre-emergence herbicidal effect. Type of data set: in vivo. The settings on record: scored visually after 3 weeks. In outline:
as §1

Data set [3] has as its system Echinochloa crus-galli. As to the kind of experiment: Pre-emergence herbicidal effect. Type of data set: in vivo. To be noted: Dosage 320 g/ha, scored visually after 3 weeks. Summed up:
as §1

Another data set has as its system Lolium multiflorum. As to the kind of experiment: Pre-emergence herbicidal effect. Type of data set: in vivo. The settings on record: Dosage 320 g/ha, scored visually after 3 weeks. In outline: as §1
In another data set the test system is Matricaria inodora. In words: Pre-emergence herbicidal effect. In kind it is in vivo. The settings on record: scored visually after 3 weeks. In outline:
as §1

The test system of data set [4] is Polygonum convolvulus. In words: Pre-emergence herbicidal effect. In kind it is in vivo. The settings on record: Dosage 320 g/ha, scored visually after 3 weeks. Summed up: as §1
In the next data set the test system is Setaria viridis. As to the kind of experiment: Pre-emergence herbicidal effect. Type of data set: in vivo. The settings on record: scored visually after 3 weeks. Summed up:
as §1

Data set [5] deals with Stellaria media. In words: Pre-emergence herbicidal effect. To be noted: scored visually after 3 weeks. Type of data set: in vivo. In outline:
as §1

In data set [6] the test system is Veronica persica. In words: Pre-emergence herbicidal effect. Type of data set: in vivo. The settings on record: scored visually after 3 weeks. In outline:
as §1

For data set [7], the system named is Viola tricolor. In words: Pre-emergence herbicidal effect. The settings on record: scored visually after 3 weeks. Type of data set: in vivo. Summed up: as §1
Data set [8] concerns Abutilon theophrasti. In words: Post-emergence herbicidal effect. The settings on record: assessed visually after about 3 weeks vs untreated controls. In kind it is in vivo. Summed up: (§2)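 Ratings are visual percentages taken around 3 weeks after treatment, compared with untreated plants. Treatment consisted of an aqueous spray of WP or EC formulations, with 0.2% wetting agent, onto one-leaf-stage weeds raised from seed in sandy loam.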

For data set [9], the system named is Echinochloa crus-galli. As to the kind of experiment: Post-emergence herbicidal effect. In kind it is in vivo. The settings on record: 320 g/ha, assessed visually after about 3 weeks vs untreated controls. In outline:
as §2

For data set [10], the system named is Polygonum convolvulus. As to the kind of experiment: Post-emergence herbicidal effect. To be noted: 320 g/ha, assessed visually after about 3 weeks vs untreated controls. Type of data set: in vivo. In outline: as §2
For data set [11], the system named is Stellaria media. In words: Post-emergence herbicidal effect. The settings on record: 320 g/ha, assessed visually after about 3 weeks vs untreated controls. Type of data set: in vivo. In outline:
as §2

The nature of another data set: logP (HCOOH). In kind it is physicochemical. To be noted: HCOOH. The source says: Table 2 (physicochemical characterization of selected synthesis examples)
Data set [12] deals with Amaranthus retroflexus. As to the kind of experiment: Post-emergence herbicidal effect. Type of data set: in vivo. The settings on record: 320 g/ha, assessed visually after about 3 weeks vs untreated controls. In outline:
as §2

The test system of data set [13] is Veronica persica. In words: Post-emergence herbicidal effect. Type of data set: in vivo. The settings on record: 320 g/ha, assessed visually after about 3 weeks vs untreated controls. In outline: as §2
Data set [14] deals with Viola tricolor. As to the kind of experiment: Post-emergence herbicidal effect. Type of data set: in vivo. The settings on record: assessed visually after about 3 weeks vs untreated controls. In outline:
as §2

Regarding `Cc1cc2c(s1)CCC2Nc1ncc(S(C)(=O)=O)c(N)n1` (racemic) [compound 4], in the data set with Abutilon theophrasti [1], the “ABUTH pre-emergence efficacy (herbicidal activity)” value was 100%. Moreover, the “AMARE pre-emergence efficacy (herbicidal activity)” value (“AMARE pre-emergence efficacy” below) in the data set on Amaranthus retroflexus [2] (Dosage 80 g/ha) and with Amaranthus retroflexus [2] (Dosage 320 g/ha) was 100% each time. Further, in the data set on Echinochloa crus-galli [3], the “ECHCG pre-emergence efficacy (herbicidal activity)” value is 100%. Also, in the data set with Lolium multiflorum, the “LOLMU pre-emergence efficacy (herbicidal activity)” value is 100%. For the same compound, the “MATIN pre-emergence efficacy (herbicidal activity)” value in the data set with Matricaria inodora (Dosage 80 g/ha) and in the data set on Matricaria inodora (Dosage 320 g/ha) was 100% throughout. In the data set on Polygonum convolvulus [4], the “POLCO pre-emergence efficacy (herbicidal activity)” value is 100%. Further, the “SETVI pre-emergence efficacy (herbicidal activity)” value with Setaria viridis (Dosage 80 g/ha) and in the data set with Setaria viridis (Dosage 320 g/ha) was 100% each time. Besides, the “STEME pre-emergence efficacy (herbicidal activity)” value (“STEME pre-emergence efficacy” below) in the data set on Stellaria media [5] (Dosage 80 g/ha) and in the data set on Stellaria media [5] (Dosage 320 g/ha) was 100% in each case. Further, the “VERPE pre-emergence efficacy (herbicidal activity)” value (“VERPE pre-emergence efficacy” below) in the data set with Veronica persica [6] (Dosage 80 g/ha) and with Veronica persica [6] (Dosage 320 g/ha) was 100% throughout. The “VIOTR pre-emergence efficacy (herbicidal activity)” value (“VIOTR pre-emergence efficacy” below) with Viola tricolor [7] (Dosage 80 g/ha) and in the data set with Viola tricolor [7] (Dosage 320 g/ha) was 100% each time. The “post-emergence efficacy ABUTH” value in the data set with Abutilon theophrasti [8] (80 g/ha) is reported as 80%; with Abutilon theophrasti [8] (320 g/ha), 90%. The “post-emergence efficacy ECHCG” value in the data set with Echinochloa crus-galli [9] was found to be 100%. For the same compound, the “post-emergence efficacy POLCO” value with Polygonum convolvulus [10] is 100%. The “post-emergence efficacy STEME” value with Stellaria media [11] is reported as 100%.

As for `Cc1cc2c(o1)CC(C)(C)CC2Nc1ncc(S(C)(=O)=O)c(N)n1` (racemic) [compound 15], the “logP (HCOOH)” value in “logP (HCOOH)” is listed as “oily; logP (HCOOH): 2.36; 1H NMR (CDCl3, 400 MHZ, δ in ppm): 1.05 (s, 3H, 3H of”.

For `Nc1nc(NC2CCCc3sc(Cl)cc32)ncc1C(F)(F)F` (racemic) [compound 22], the “ABUTH pre-emergence efficacy (herbicidal activity)” value in the data set with Abutilon theophrasti [1] is 80%. Further, the “AMARE pre-emergence efficacy” value in the data set with Amaranthus retroflexus [2] (Dosage 320 g/ha) came to 100%. For the same compound, in the data set on Echinochloa crus-galli [3], the “ECHCG pre-emergence efficacy (herbicidal activity)” value is given as 100%. For the same compound, the “LOLMU pre-emergence efficacy (herbicidal activity)” value in the data set on Lolium multiflorum is on record as 100%. Besides, in the data set on Matricaria inodora (Dosage 320 g/ha), the “MATIN pre-emergence efficacy (herbicidal activity)” value amounted to 100%. Besides, the “POLCO pre-emergence efficacy (herbicidal activity)” value in the data set on Polygonum convolvulus [4] stood at 100%. Besides, the “SETVI pre-emergence efficacy (herbicidal activity)” value in the data set on Setaria viridis (Dosage 320 g/ha) was found to be 100%. Further, the “STEME pre-emergence efficacy” value in the data set on Stellaria media [5] (Dosage 320 g/ha) was found to be 100%. Moreover, the “VERPE pre-emergence efficacy” value in the data set on Veronica persica [6] (Dosage 320 g/ha) turned out to be 100%. For the same compound, the “VIOTR pre-emergence efficacy” value in the data set with Viola tricolor [7] (Dosage 320 g/ha) came to 100%. Also, the “post-emergence efficacy ABUTH” value with Abutilon theophrasti [8] (320 g/ha) was found to be 90%. The “post-emergence efficacy AMARE” value in the data set with Amaranthus retroflexus [12] worked out at 100%. Besides, the “post-emergence efficacy ECHCG” value with Echinochloa crus-galli [9] is given as 90%. Also, the “post-emergence efficacy POLCO” value in the data set on Polygonum convolvulus [10] is given as 90%. Moreover, in the data set with Stellaria media [11], the “post-emergence efficacy STEME” value is 90%. In addition, in the data set on Veronica persica [13], the “post-emergence efficacy VERPE” value is recorded as 90%. The “post-emergence efficacy VIOTR” value in the data set on Viola tricolor [14] (320 g/ha) is on record as 90%.

Consider `Nc1nc(NC2CCc3ccsc32)ncc1[N+](=O)[O-]` (racemic) [compound 32], for which, in the data set “logP (HCOOH)”, the “logP (HCOOH)” value was “solid; m.p.: 189.5° C.; logP (HCOOH): 1.53;”.

Consider `N#Cc1cnc(NC2CCc3cc(Cl)sc32)nc1N` (racemic) [compound 49], for which, in the data set with Amaranthus retroflexus [2] (Dosage 320 g/ha), the “AMARE pre-emergence efficacy” value was determined as 100%. Also, the entries for the “STEME pre-emergence efficacy” value in the data set on Stellaria media [5] (Dosage 80 g/ha) and with Stellaria media [5] (Dosage 320 g/ha) were 90% and 100%, respectively. Also, the “VERPE pre-emergence efficacy” value with Veronica persica [6] (Dosage 320 g/ha) was 70%. For the same compound, the “VIOTR pre-emergence efficacy” value in the data set on Viola tricolor [7] (Dosage 80 g/ha) and in the data set on Viola tricolor [7] (Dosage 320 g/ha) was 100% in each case. The “post-emergence efficacy VIOTR” value in the data set with Viola tricolor [14] (80 g/ha) came to 80%; in the data set on Viola tricolor [14] (320 g/ha), 90%. Also, in the data set “logP (HCOOH)”, the “logP (HCOOH)” value was “solid; logP (HCOOH): 2.32;”.

Consider `O=C1CCCc2nc(NC3CCCc4occc43)ncc21` (racemic) [compound 54], for which the “logP (HCOOH)” value in “logP (HCOOH)” is on record as “oily; logP (HCOOH): 2.35; 1H NMR (CDCl3, 400 MHZ, δ in ppm): 1.80-2.00 (m, 4H,”.

For `Cc1sc(C)c2c1CCCC2Nc1ncc(C#N)c(N)n1` (racemic) [compound 56], in “logP (HCOOH)”, the “logP (HCOOH)” value is “oily; logP (HCOOH): 2.66;”.

In the case of `Cc1nc(NC2CCCc3c(C)sc(C)c32)nc(N)c1C#N` (racemic) [compound 64], in “logP (HCOOH)”, the “logP (HCOOH)” value was “solid, logP (HCOOH): 2.71; 1H NMR (CDCl3, 400 MHZ, δ in ppm): 1.75 (m, 3H, 3H”.

The values are drawn from patent US10251395B2, “Substituted furano-/thienocycloalkylamino-2-pyrimidine derivatives and use thereof for controlling undesired plant growth” (Bayer CropScience Aktiengesellschaft, priority 2015, dated 2019).
